A short description of the series: Examination of solubility of compounds in toluene. The note with it: in toluene at room temperature.

Molecules are shown by their SMILES.

As for `Cn1c(=O)cc2c3c(c(Nc4ccccc4)ccc31)C(=O)c1ccccc1-2` [(1)], the Solubility result is listed as “≦1%”. Under `Cc1ccc(Nc2ccc3c4c(cc(=O)n3C)-c3ccccc3C(=O)c24)cc1` [(2)] stands “≦1%”.

On to `Cc1cccc(Nc2ccc3c4c(cc(=O)n3C)-c3ccccc3C(=O)c24)c1` [(3)], for which the Solubility entry is listed as “≦1%”. Turning to `Cc1ccc(Nc2ccc3c4c(cc(=O)n3-c3ccc(C)cc3)-c3ccccc3C(=O)c24)cc1` [(4)], the Solubility result is given as “≦1%”. As for `O=C1c2ccccc2-c2cc(=O)n(C3CCCCC3)c3ccc(NC4CCCCC4)c1c23` [(5)], the entry is “≦0.1% ^”; as for `CCCCC(CC)CNc1ccc2c3c(cc(=O)n2C)-c2ccccc2C(=O)c13` (stereo not drawn) [Compound (1)], 5%. On to `CCCCC(CC)CNc1ccc2c3c(cc(=O)n2CC(CC)CCCC)-c2ccccc2C(=O)c13` (stereo not drawn) [Compound (5)], for which the Solubility result was “≧10%^”. Consider `CCCCCCCCCCCCNc1ccc2c3c(cc(=O)n2CCCC)-c2ccccc2C(=O)c13` [Compound (8)], for which the Solubility entry was “≧10%^”. In the case of `CCCCn1c(=O)cc2c3c(c(NCCC4=CCCCC4)ccc31)C(=O)c1ccccc1-2` [Compound (9)], the Solubility entry is given as “≧10%^”.

Source of the values: patent publication US20140225048A1, “LIQUID COMPOSITION, AND COLOR-FILTER RESIST COMPOSITION, THERMAL-TRANSFER RECORDING SHEET AND INK WHICH MAKE USE OF THE LIQUID COMPOSITION” (CANON KABUSHIKI KAISHA, priority 2011, published 2014).
